Values joined by “and” are separate entries in the source; they are usually repeats but may differ in a detail not shown here. Equal values may be shown once. Inconclusive results and toxic doses are left out.
Test system: L1210 leukemia ip in BDF1 mice, survival T/C
Assay: NCI In Vivo Anticancer Drug Screen. Data for tumor model L1210 Leukemia (intraperitoneal) in B6D2F1 (BDF1) mice
Details: endpoint: mean survival time, higher = longer survival
Procedure, shortened: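 Tumor was transplanted into mice, which were then dosed with test compound or vehicle alone. Survival was recorded for each group, and the treated figure was expressed relative to the control figure.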

## CC(=O)OCC1OC(n2ncc(=O)[nH]c2=O)C(OC(C)=O)C1OC(C)=O (stereo unspecified)
dose: 5.3 mg/kg/injection, schedule: Q01DX Z (oral), vehicle: carboxymethylcellulose (CMC)
  T/C: 122 % of control
dose: 8.0 mg/kg/injection, schedule: Q01DX Z (oral), vehicle: carboxymethylcellulose (CMC)
  T/C: 119 % of control
dose: 8.0 mg/kg/injection, schedule: Q03HX024 (ip), vehicle: other
  T/C: 104 % of control
dose: 8.0 mg/kg/injection, schedule: Q03HX024 (oral), vehicle: other
  T/C: 117 % of control
dose: 8.8 mg/kg/injection, schedule: Q01DX Z (ip), vehicle: carboxymethylcellulose (CMC)
  T/C: 114 % of control
dose: 10.0 mg/kg/injection, schedule: Q01DX Z (im), vehicle: carboxymethylcellulose (CMC)
  T/C: 121 % of control
dose: 11.66 mg/kg/injection, schedule: Q#B X Z (ip), vehicle: carboxymethylcellulose (CMC)
  T/C: 111 % of control
dose: 13.0 mg/kg/injection, schedule: Q01DX Z (ip), vehicle: carboxymethylcellulose (CMC)
  T/C: 118 % of control
dose: 15.0 mg/kg/injection, schedule: Q01DX Z (im), vehicle: carboxymethylcellulose (CMC)
  T/C: 122 % of control
dose: 15.0 mg/kg/injection, schedule: Q01DX Z (sc), vehicle: carboxymethylcellulose (CMC)
  T/C: 116 % of control
dose: 16.0 mg/kg/injection, schedule: Q03HX008 (ip), vehicle: other
  T/C: 103 % of control
dose: 16.0 mg/kg/injection, schedule: Q03HX016 (ip), vehicle: other
  T/C: 105 % of control
dose: 18.33 mg/kg/injection, schedule: Q#B X Z (ip), vehicle: carboxymethylcellulose (CMC)
  T/C: 113 % of control
dose: 20.0 mg/kg/injection, schedule: Q01DX Z (ip), vehicle: carboxymethylcellulose (CMC)
  T/C: 120 % of control
dose: 23.0 mg/kg/injection, schedule: Q01DX Z (im), vehicle: carboxymethylcellulose (CMC)
  T/C: 121 % of control
dose: 26.66 mg/kg/injection, schedule: Q#B X Z (ip), vehicle: carboxymethylcellulose (CMC)
  T/C: 116 % of control
dose: 31.0 mg/kg/injection, schedule: Q01DX Z (ip), vehicle: carboxymethylcellulose (CMC)
  T/C: 120 % of control
dose: 32.0 mg/kg/injection, schedule: Q03HX008 (ip), vehicle: other
  T/C: 102 % of control
dose: 32.0 mg/kg/injection, schedule: Q03HX016 (ip), vehicle: other
  T/C: 103 % of control
dose: 32.0 mg/kg/injection, schedule: Q03HX024 (ip), vehicle: other
  T/C: 118 % of control
dose: 32.0 mg/kg/injection, schedule: Q03HX024 (oral), vehicle: other
  T/C: 122 % of control
dose: 61.66 mg/kg/injection, schedule: Q#B X Z (ip), vehicle: carboxymethylcellulose (CMC)
  T/C: 120 % of control
dose: 62.0 mg/kg/injection, schedule: Q01DX Z (oral), vehicle: carboxymethylcellulose (CMC)
  T/C: 157 % of control
dose: 64.0 mg/kg/injection, schedule: Q03HX008 (ip), vehicle: other
  T/C: 108 % of control
dose: 64.0 mg/kg/injection, schedule: Q03HX016 (ip), vehicle: other
  T/C: 103 % of control
dose: 64.0 mg/kg/injection, schedule: Q04DX003 (ip), vehicle: other
  T/C: 103 % of control
dose: 64.0 mg/kg/injection, schedule: Q04DX003 (oral), vehicle: other
  T/C: 109 % of control
dose: 85.0 mg/kg/injection, schedule: Q01DX Z (im), vehicle: carboxymethylcellulose (CMC)
  T/C: 122 % of control
dose: 93.33 mg/kg/injection, schedule: Q#B X Z (ip), vehicle: carboxymethylcellulose (CMC)
  T/C: 124 % of control and 86 % of control
dose: 125.0 mg/kg/injection, schedule: Q01DX001 (ip), vehicle: carboxymethylcellulose (CMC)
  T/C: 102 % of control and 107 % of control
dose: 125.0 mg/kg/injection, schedule: Q01DX006 (iv), vehicle: carboxymethylcellulose (CMC)
  T/C: 118 % of control
dose: 125.0 mg/kg/injection, schedule: Q03DX Z (ip), vehicle: carboxymethylcellulose (CMC)
  T/C: 121 % of control
dose: 125.0 mg/kg/injection, schedule: Q07DX Z (ip), vehicle: carboxymethylcellulose (CMC)
  T/C: 110 % of control
dose: 128.0 mg/kg/injection, schedule: Q01DX001 (ip), vehicle: other
  T/C: 105 % of control
dose: 128.0 mg/kg/injection, schedule: Q03HX008 (ip), vehicle: other
  T/C: 109 % of control
dose: 128.0 mg/kg/injection, schedule: Q03HX016 (ip), vehicle: other
  T/C: 119 % of control
dose: 128.0 mg/kg/injection, schedule: Q04DX003 (ip), vehicle: other
  T/C: 110 % of control
dose: 128.0 mg/kg/injection, schedule: Q04DX003 (oral), vehicle: other
  T/C: 101 % of control
dose: 128.0 mg/kg/injection, schedule: Q08DX002 (ip), vehicle: other
  T/C: 101 % of control
dose: 166.66 mg/kg/injection, schedule: Q#B X Z (ip), vehicle: carboxymethylcellulose (CMC)
  T/C: 157 % of control
dose: 185.0 mg/kg/injection, schedule: Q01DX Z (sc), vehicle: carboxymethylcellulose (CMC)
  T/C: 121 % of control
dose: 250.0 mg/kg/injection, schedule: Q01DX001 (ip), vehicle: carboxymethylcellulose (CMC)
  T/C: 100 % of control and 103 % of control
dose: 250.0 mg/kg/injection, schedule: Q01DX Z (im), vehicle: carboxymethylcellulose (CMC)
  T/C: 161 % of control
dose: 250.0 mg/kg/injection, schedule: Q03DX Z (ip), vehicle: carboxymethylcellulose (CMC)
  T/C: 122 % of control
dose: 250.0 mg/kg/injection, schedule: Q07DX Z (ip), vehicle: carboxymethylcellulose (CMC)
  T/C: 115 % of control
dose: 256.0 mg/kg/injection, schedule: Q01DX001 (ip), vehicle: other
  T/C: 97 % of control
dose: 256.0 mg/kg/injection, schedule: Q04DX003 (ip), vehicle: other
  T/C: 106 % of control
dose: 256.0 mg/kg/injection, schedule: Q04DX003 (oral), vehicle: other
  T/C: 120 % of control
dose: 256.0 mg/kg/injection, schedule: Q08DX002 (ip), vehicle: other
  T/C: 96 % of control
dose: 280.0 mg/kg/injection, schedule: Q01DX Z (sc), vehicle: carboxymethylcellulose (CMC)
  T/C: 151 % of control
dose: 420.0 mg/kg/injection, schedule: Q01DX Z (sc), vehicle: carboxymethylcellulose (CMC)
  T/C: 108 % of control
dose: 450.0 mg/kg/injection, schedule: Q01DX010 (ip), vehicle: saline
  T/C: 116 % of control
dose: 500.0 mg/kg/injection, schedule: Q01DX001 (ip), vehicle: carboxymethylcellulose (CMC)
  T/C: 102 % of control and 113 % of control
dose: 500.0 mg/kg/injection, schedule: Q01DX Z (im), vehicle: carboxymethylcellulose (CMC)
  T/C: 150 % of control
dose: 500.0 mg/kg/injection, schedule: Q01DX Z (sc), vehicle: carboxymethylcellulose (CMC)
  T/C: 154 % of control
dose: 500.0 mg/kg/injection, schedule: Q03DX Z (ip), vehicle: carboxymethylcellulose (CMC)
  T/C: 121 % of control
dose: 500.0 mg/kg/injection, schedule: Q07DX Z (ip), vehicle: carboxymethylcellulose (CMC)
  T/C: 113 % of control
dose: 512.0 mg/kg/injection, schedule: Q01DX001 (ip), vehicle: other
  T/C: 104 % of control
dose: 512.0 mg/kg/injection, schedule: Q01DX009 (oral), vehicle: other
  T/C: 151 % of control
dose: 512.0 mg/kg/injection, schedule: Q04DX003 (ip), vehicle: other
  T/C: 106 % of control
dose: 512.0 mg/kg/injection, schedule: Q08DX002 (ip), vehicle: other
  T/C: 105 % of control
dose: 675.0 mg/kg/injection, schedule: Q01DX010 (ip), vehicle: saline
  T/C: 93 % of control
dose: 1000.0 mg/kg/injection, schedule: Q01DX001 (ip), vehicle: carboxymethylcellulose (CMC)
  T/C: 97 % of control and 122 % of control
dose: 1000.0 mg/kg/injection, schedule: Q01DX Z (im), vehicle: carboxymethylcellulose (CMC)
  T/C: 158 % of control
dose: 1000.0 mg/kg/injection, schedule: Q01DX Z (ip), vehicle: carboxymethylcellulose (CMC)
  T/C: 102 % of control
dose: 1000.0 mg/kg/injection, schedule: Q01DX Z (oral), vehicle: carboxymethylcellulose (CMC)
  T/C: 86 % of control
dose: 1000.0 mg/kg/injection, schedule: Q01DX Z (sc), vehicle: carboxymethylcellulose (CMC)
  T/C: 117 % of control
dose: 1000.0 mg/kg/injection, schedule: Q07DX Z (ip), vehicle: carboxymethylcellulose (CMC)
  T/C: 113 % of control
dose: 1014.0 mg/kg/injection, schedule: Q01DX010 (ip), vehicle: saline
  T/C: 100 % of control
dose: 1024.0 mg/kg/injection, schedule: Q01DX001 (ip), vehicle: other
  T/C: 101 % of control
dose: 1024.0 mg/kg/injection, schedule: Q08DX002 (ip), vehicle: other
  T/C: 106 % of control

Source: PubChem BioAssay AID248 (DTP/NCI, 2004)
